Results from ChEMBL document CHEMBL3870329, “Synthesis of peptide nucleic acids (PNA) with a crosslinking agent to RNA and effective inhibition of dicer” (Bioorg Med Chem Lett, 2016).
Values belong to the compound of their own block, whether it stands above or below them. Activity calls are given as the source filed them. No cut-off for these calls is given here.

Tests used:
[1] = Binding affinity to 5'-end FAM-tagged GACCAATCCCAATCTGGTT DNA (unknown origin) assessed as change in melting temperature at 1.5 uM measured after 5 mins by UV spectrophotometry
[2] = Binding affinity to 5'-end FAM-tagged GACCAACCCCAAUCUGGUU RNA (unknown origin) assessed as change in melting temperature at 1.5 uM measured after 5 mins by UV spectrophotometry
[3] = Binding affinity to 5'-end FAM-tagged GACCAAGCCCAAUCUGGUU RNA (unknown origin) assessed as change in melting temperature at 1.5 uM measured after 5 mins by UV spectrophotometry
[4] = Binding affinity to 5'-end FAM-tagged GACCAAACCCAATCTGGTT DNA (unknown origin) assessed as change in melting temperature at 1.5 uM measured after 5 mins by UV spectrophotometry
[5] = Binding affinity to 5'-end FAM-tagged GACCAAACCCAAUCUGGUU RNA (unknown origin) assessed as change in melting temperature at 1.5 uM measured after 5 mins by UV spectrophotometry
[6] = Binding affinity to 5'-end FAM-tagged GACCAACCCCAATCTGGTT DNA (unknown origin) assessed as change in melting temperature at 1.5 uM measured after 5 mins by UV spectrophotometry
[7] = Binding affinity to 5'-end FAM-tagged GACCAAUCCCAAUCUGGUU RNA (unknown origin) assessed as change in melting temperature at 1.5 uM measured after 5 mins by UV spectrophotometry
[8] = Binding affinity to 5'-end FAM-tagged GACCAAGCCCAATCTGGTT DNA (unknown origin) assessed as change in melting temperature at 1.5 uM measured after 5 mins by UV spectrophotometry
[9] = tested on: Nucleic Acid; assay: Binding affinity to synthetic 5'-FAM-labelled pre-miR-122 RNA site1 (unknown origin) assessed as human dicer-mediated digestion of pre-miR-122 RNA preincubated with RNA for 2 days followed by dicer addition measured after 2 hrs by denaturing PAGE analysis; type: nucleic-acid assay
[10] = tested on: Nucleic Acid; assay: Binding affinity to synthetic 5'-fluorescein-labelled pre-miR-122 RNA site1 (unknown origin) assessed as heteroduplex formation at 4 uM measured after 48 hrs by non-denaturing PAGE analysis relative to control; type: nucleic-acid assay
[11] = tested on: Nucleic Acid; assay: Binding affinity to synthetic 5'-FAM-labelled pre-miR-122 RNA site1 (unknown origin) assessed as heteroduplex formation at 4 uM measured after 2 hrs by denaturing PAGE analysis relative to control; type: nucleic-acid assay
[12] = tested on: Nucleic Acid; assay: Binding affinity to synthetic 5'-FAM-labelled pre-miR-122 RNA site1 (unknown origin) assessed as inhibition of human dicer-mediated digestion of pre-miR-122 RNA preincubated with RNA for 2 days followed by dicer addition measured after 2 hrs by denaturing PAGE analysis relative to control; type: nucleic-acid assay; conditions: concentration not given here
[13] = tested on: Nucleic Acid; assay: Binding affinity to 5'-end FAM-tagged GACTCAATCCCAATCTGGTT DNA (unknown origin) assessed as induction of crosslinking by measuring heteroduplex formation at 4 uM measured after 24 hrs by bromophenol blue staining-based denaturing PAGE analysis relative to control; type: nucleic-acid assay
[14] = tested on: unidentified; assay: Binding affinity to 5'-end FAM-tagged GACUCAAUCCCAAUCUGGUU RNA (unknown origin) assessed as melting temperature at 1.5 uM measured after 5 mins by UV spectrophotometry (reference value: 82.2 degC)
[15] = tested on: Nucleic Acid; assay: Binding affinity to 5'-end FAM-tagged GACGCAAUCCCAAUCUGGUU RNA (unknown origin) assessed as induction of crosslinking by measuring heteroduplex formation at 4 uM measured after 24 hrs by bromophenol blue staining-based denaturing PAGE analysis relative to control; type: nucleic-acid assay
[16] = tested on: Nucleic Acid; assay: Binding affinity to 5'-end FAM-tagged GACACAAUCCCAAUCUGGUU RNA (unknown origin) assessed as induction of crosslinking by measuring heteroduplex formation at 4 uM measured after 24 hrs by bromophenol blue staining-based denaturing PAGE analysis relative to control; type: nucleic-acid assay
[17] = Binding affinity to 5'-end FAM-tagged GACTCAATCCCAATCTGGTT DNA (unknown origin) assessed as crosslinked adduct formation by MALDI-TOF MS analysis
[18] = tested on: Nucleic Acid; assay: Binding affinity to 5'-end FAM-tagged GACCCAAUCCCAAUCUGGUU RNA (unknown origin) assessed as induction of crosslinking by measuring heteroduplex formation at 4 uM measured after 24 hrs by bromophenol blue staining-based denaturing PAGE analysis relative to control; type: nucleic-acid assay
[19] = tested on: Nucleic Acid; assay: Binding affinity to 5'-end FAM-tagged GACUCAAUCCCAAUCUGGUU RNA (unknown origin) assessed as induction of crosslinking by measuring heteroduplex formation at 4 uM measured after 24 hrs by bromophenol blue staining-based denaturing PAGE analysis relative to control; type: nucleic-acid assay
[20] = tested on: Nucleic Acid; assay: Binding affinity to 5'-end FAM-tagged GACCCAATCCCAATCTGGTT DNA (unknown origin) assessed as induction of crosslinking by measuring heteroduplex formation at 4 uM measured after 24 hrs by bromophenol blue staining-based denaturing PAGE analysis relative to control; type: nucleic-acid assay
[21] = tested on: unidentified; assay: Binding affinity to 5'-end FAM-tagged GACTCAATCCCAATCTGGTT DNA (unknown origin) assessed as melting temperature at 1.5 uM measured after 5 mins by UV spectrophotometry (reference value: 79.2 degC)
[22] = tested on: Nucleic Acid; assay: Binding affinity to 5'-end FAM-tagged GACACAATCCCAATCTGGTT DNA (unknown origin) assessed as induction of crosslinking by measuring heteroduplex formation at 4 uM measured after 24 hrs by bromophenol blue staining-based denaturing PAGE analysis relative to control; type: nucleic-acid assay
[23] = tested on: Nucleic Acid; assay: Binding affinity to 5'-end FAM-tagged GACGCAATCCCAATCTGGTT DNA (unknown origin) assessed as induction of crosslinking by measuring heteroduplex formation at 4 uM measured after 24 hrs by bromophenol blue staining-based denaturing PAGE analysis relative to control; type: nucleic-acid assay
[24] = tested on: Nucleic Acid; assay: Binding affinity to synthetic 5'-FAM-labelled pre-miR-122 RNA site2 (unknown origin) assessed as human dicer-mediated digestion of pre-miR-122 RNA preincubated with RNA for 2 days followed by dicer addition measured after 2 hrs by denaturing PAGE analysis; type: nucleic-acid assay
[25] = tested on: Nucleic Acid; assay: Binding affinity to synthetic 5'-FAM-labelled pre-miR-122 RNA site2 (unknown origin) assessed as inhibition of human dicer-mediated digestion of pre-miR-122 RNA preincubated with RNA for 2 days followed by dicer addition measured after 2 hrs by denaturing PAGE analysis relative to control; type: nucleic-acid assay; conditions: concentration not given here
[26] = tested on: Nucleic Acid; assay: Binding affinity to synthetic 5'-fluorescein-labelled pre-miR-122 RNA site2 (unknown origin) assessed as heteroduplex formation at 4 uM measured after 48 hrs by non-denaturing PAGE analysis relative to control; type: nucleic-acid assay
[27] = tested on: Nucleic Acid; assay: Binding affinity to synthetic 5'-FAM-labelled pre-miR-122 RNA site2 (unknown origin) assessed as heteroduplex formation at 4 uM measured after 2 hrs by denaturing PAGE analysis relative to control; type: nucleic-acid assay
[28] = tested on: Nucleic Acid; assay: Binding affinity to synthetic 5'-fluorescein-labelled pre-miR-122 RNA site3 (unknown origin) assessed as heteroduplex formation at 4 uM measured after 48 hrs by non-denaturing PAGE analysis relative to control; type: nucleic-acid assay
[29] = tested on: Nucleic Acid; assay: Binding affinity to synthetic 5'-FAM-labelled pre-miR-122 RNA site3 (unknown origin) assessed as human dicer-mediated digestion of pre-miR-122 RNA preincubated with RNA for 2 days followed by dicer addition measured after 2 hrs by denaturing PAGE analysis; type: nucleic-acid assay
[30] = tested on: Nucleic Acid; assay: Binding affinity to synthetic 5'-FAM-labelled pre-miR-122 RNA site3 (unknown origin) assessed as heteroduplex formation at 4 uM measured after 2 hrs by denaturing PAGE analysis relative to control; type: nucleic-acid assay
[31] = tested on: Nucleic Acid; assay: Binding affinity to synthetic 5'-FAM-labelled pre-miR-122 RNA site3 (unknown origin) assessed as inhibition of human dicer-mediated digestion of pre-miR-122 RNA by measuring heteroduplex formation preincubated with RNA for 2 days followed by dicer addition measured after 2 hrs by denaturing PAGE analysis relative to control; type: nucleic-acid assay; conditions: concentration not given here

Compound: CSCCc1nc(N)nc2c1ncn2CC(=O)N(CCNC(=O)CN(CCNC(=O)CN(CCNC(=O)CN(CCNC(C)=O)C(=O)Cn1cnc2c(=O)[nH]c(N)nc21)C(=O)Cn1cc(C)c(=O)[nH]c1=O)C(=O)Cn1cc(C)c(=O)[nH]c1=O)CC(=O)NCCN(CC(=O)NCCN(CC(=O)NCCN(CC(=O)NCCN(CC(=O)NCCN(CC(=O)NCCN(CC(=O)NCCN(CC(=O)N[C@@H](CCCNC(=N)N)C(=O)N[C@@H](CCCNC(=N)N)C(=O)NCC(N)=O)C(=O)Cn1cnc2c(=O)[nH]c(N)nc21)C(=O)Cn1cnc2c(N)ncnc21)C(=O)Cn1cc(C)c(=O)[nH]c1=O)C(=O)Cn1cc(C)c(=O)[nH]c1=O)C(=O)Cn1cnc2c(=O)[nH]c(N)nc21)C(=O)Cn1cnc2c(=O)[nH]c(N)nc21)C(=O)Cn1cnc2c(=O)[nH]c(N)nc21
- ΔTm [1]: -9.9 °C
- ΔTm [2]: -6.1 °C
- ΔTm [3]: -11 °C
- ΔTm [4]: -10.6 °C
- ΔTm [5]: -10.1 °C
- ΔTm [6]: -10.3 °C
- ΔTm [7]: -5.9 °C
- ΔTm [8]: -11 °C

Compound: C=Cc1nc(N)nc2c1ncn2CC(=O)N(CCNC(C)=O)CC(=O)NCCN(CC(=O)NCCN(CC(=O)NCCN(CC(=O)NCCN(CC(=O)NCCN(CC(=O)NCCN(CC(=O)NCCN(CC(=O)NCCN(CC(=O)NCCN(CC(=O)NCCN(CC(=O)NCCN(CC(=O)N[C@@H](CCCNC(=N)N)C(=O)N[C@@H](CCCNC(=N)N)C(=O)NCC(N)=O)C(=O)Cn1cnc2c(=O)[nH]c(N)nc21)C(=O)Cn1cnc2c(N)ncnc21)C(=O)Cn1cc(C)c(=O)[nH]c1=O)C(=O)Cn1cc(C)c(=O)[nH]c1=O)C(=O)Cn1cnc2c(=O)[nH]c(N)nc21)C(=O)Cn1cnc2c(=O)[nH]c(N)nc21)C(=O)Cn1cnc2c(=O)[nH]c(N)nc21)C(=O)Cn1cnc2c(N)ncnc21)C(=O)Cn1cc(C)c(=O)[nH]c1=O)C(=O)Cn1cc(C)c(=O)[nH]c1=O)C(=O)Cn1cnc2c(=O)[nH]c(N)nc21
- Activity [13]: 52%
- Tm [14]: 84.5 °C
- Activity [15]: 2%
- Activity [16]: 0%
- Activity [17]: Active
- Activity [18]: 2%
- Activity [19]: 62%
- Activity [20]: 2%
- Tm [21]: 80.3 °C
- Activity [22]: 1%
- Activity [23]: 3%

Compound: C=Cc1nc(N)nc2c1ncn2CC(=O)N(CCN)CC(=O)NCCN(CC(=O)NCCN(CC(=O)NCCN(CC(=O)NCCN(CC(=O)NCCN(CC(=O)NCCN(CC(=O)NCCN(CC(=O)NCCN(CC(=O)NCCN(CC(=O)NCCN(CC(=O)NCCN(CC(=O)NCCN(CC(=O)N[C@@H](CCCNC(=N)N)C(=O)O)C(=O)Cn1ccc(N)nc1=O)C(=O)Cn1ccc(N)nc1=O)C(=O)Cn1cc(C)c(=O)[nH]c1=O)C(=O)Cn1ccc(N)nc1=O)C(=O)Cn1cnc2c(N)ncnc21)C(=O)Cn1ccc(N)nc1=O)C(=O)Cn1cnc2c(N)ncnc21)C(=O)Cn1ccc(N)nc1=O)C(=O)Cn1cc(C)c(=O)[nH]c1=O)C(=O)Cn1cnc2c(=O)[nH]c(N)nc21)C(=O)Cn1cc(C)c(=O)[nH]c1=O)C(=O)Cn1cc(C)c(=O)[nH]c1=O
- Activity [24]: 59%
- inhibition [25]: 41%
- Activity [26]: 41%
- Activity [27]: 15%

Continued, values first:

- Activity [9]: 90%
- Activity [10]: 10%
- Activity [11]: 8%
- inhibition [12]: 10%
Compound: C=Cc1nc(N)nc2c1ncn2CC(=O)N(CCN)CC(=O)NCCN(CC(=O)NCCN(CC(=O)NCCN(CC(=O)NCCN(CC(=O)NCCN(CC(=O)NCCN(CC(=O)NCCN(CC(=O)NCCN(CC(=O)NCCN(CC(=O)NCCN(CC(=O)NCCN(CC(=O)NCCN(CC(=O)N[C@@H](CCCNC(=N)N)C(=O)O)C(=O)Cn1cnc2c(N)ncnc21)C(=O)Cn1cc(C)c(=O)[nH]c1=O)C(=O)Cn1cnc2c(N)ncnc21)C(=O)Cn1cnc2c(=O)[nH]c(N)nc21)C(=O)Cn1cc(C)c(=O)[nH]c1=O)C(=O)Cn1cc(C)c(=O)[nH]c1=O)C(=O)Cn1cc(C)c(=O)[nH]c1=O)C(=O)Cn1cnc2c(=O)[nH]c(N)nc21)C(=O)Cn1ccc(N)nc1=O)C(=O)Cn1cnc2c(=O)[nH]c(N)nc21)C(=O)Cn1cnc2c(=O)[nH]c(N)nc21)C(=O)Cn1cc(C)c(=O)[nH]c1=O

- Activity [28]: 85%
- Activity [29]: 24%
- Activity [30]: 72%
- inhibition [31]: 76%
Compound: C=Cc1nc(N)nc2c1ncn2CC(=O)N(CCN)CC(=O)NCCN(CC(=O)NCCN(CC(=O)NCCN(CC(=O)NCCN(CC(=O)NCCN(CC(=O)NCCN(CC(=O)NCCN(CC(=O)NCCN(CC(=O)NCCN(CC(=O)NCCN(CC(=O)NCCN(CC(=O)NCCN(CC(=O)N[C@@H](CCCNC(=N)N)C(=O)O)C(=O)Cn1ccc(N)nc1=O)C(=O)Cn1cnc2c(N)ncnc21)C(=O)Cn1ccc(N)nc1=O)C(=O)Cn1cnc2c(N)ncnc21)C(=O)Cn1cnc2c(=O)[nH]c(N)nc21)C(=O)Cn1cnc2c(N)ncnc21)C(=O)Cn1cc(C)c(=O)[nH]c1=O)C(=O)Cn1cc(C)c(=O)[nH]c1=O)C(=O)Cn1cc(C)c(=O)[nH]c1=O)C(=O)Cn1cnc2c(=O)[nH]c(N)nc21)C(=O)Cn1cnc2c(N)ncnc21)C(=O)Cn1cc(C)c(=O)[nH]c1=O
